What was measured:
Aβ1–42 = target: T1, Aβ1–42 (Homo sapiens, UniProt P05067); assay: Inhibition of Aβ1-42 self-induced aggregation (BioVision ligand screening kit); format: biochemical; conditions: µM
T1 construct: purchased BioVision K570-100
Excerpt: Screening Aβ42 ligands that could prevent aggregation is critical for developing potential therapeutic treatments. In BioVision’s Beta-Amyloid 1–42 (Aβ42) Ligand Screening kit, a dye binds to the beta-sheets of an aggregated amyloid peptide resulting in an intense fluorescent product at wave length 450 nm using a BIOLINE ELISA reader. In the presence of an Aβ42 ligand, this reaction is impeded/abolished resulting in a decrease or total loss of fluorescence. This assay is useful in screening Aβ42 ligands for developing potential therapeutic agents against AD[42]. The assessment was performed according to BioVision’s Beta-Amyloid 1–42 (Aβ42) Ligand Screening Kit Catalog No. K570-100.

[1] = system: IL-1β production in LPS-induced BV2 microglia cell lines; assay: IL-1β assessment in LPS-induced BV2 microglia (ELISA); format: cell-based
Experimental: IL-1β is a pro-inflammatory cytokines involved in the pathogenesis of AD[40]. So, activity of 5b and 6b derivatives were evaluated against LPS-induced BV2 microglia cell lines production of IL-1β. They induced a decrease in IL-1β level to about 5% and 48%, sequentially, as compared to a positive control (Figure 5).
(§1) LPS was the used positive control.
For IL-1β, this assay employs the quantitative sandwich enzyme immunoassay technique. A monoclonal antibody specific for human IL-1β has been pre-coated onto a micro plate. Standards and samples are piped into the wells and any IL-1β present is bound by the immobilised antibody. After washing away any unbound substances, an enzyme-linked polyclonal antibody specific for human IL-1β is added to the wells. Following a wash to remove any unbound antibody-enzyme reagent, a substrate solution is added to the wells and colour develops in proportion to the amount of IL-1β bound in the initial step. The colour development is stopped and the intensity of the colour is measured, the method of assessment was performed as instructed in the IL-1 β R&D system ELISA kit (catalog No. DLB50).

[2] = system: NO production in LPS-induced BV2 microglia cell lines; assay: Nitric oxide (NO) assessment in LPS-induced BV2 microglia; format: cell-based; conditions: positive control 6.42 pg/mL
Experimental: In AD, increased production of vascular NO, a highly neurotoxic mediator in the CNS, may contribute to the vulnerability of neurons to injury and cell death.
as §1
NO plays an important role in neurotransmission, vascular regulation, immune response, and apoptosis. NO is rapidly oxidised to nitrite and nitrate which are used to quantitate NO. NO was estimated using the Abcam ELISA kit (catalog No. ab65328). Briefly, enzyme was added to cell lysate, followed with cofactor and incubated at room temperature for 60 min, after that Griess reagent was added and incubated at room temperature for 10 min., finally optical density was measured at 540 nm.
Microglia cell Line, BV-2, human neuroblastoma (SH-SY5Y), and normal hepatic (THLE2) cells were obtained from American Type Culture Collection, cells were cultured using DMEM (Invitrogen/Life Technologies, Carlsbad, CA) supplemented with 10% FBS (Hyclone), 10 µg/mL of insulin (Sigma, St. Louis, MO), and 1% penicillin-streptomycin. All of the other chemicals and reagents were from Sigma, or Invitrogen. Plate cells (cells density 1.2 − 1.8 × 10,000 cells/well) in a volume of 100 µL complete growth medium + 100 µL of the tested compounds per well in a 96-well plate for 24 h before the MTT assay.

[3] = system: TNF-α production in LPS-induced BV2 microglia cell lines; assay: TNF-α assessment in LPS-induced BV2 microglia (ELISA); format: cell-based
Experimental: TNF-α signalling exacerbates both Aβ and tau pathologies in vivo, according to several lines of evidence based on genetic and pharmacological modifications.
as §1
For TNF-α, cell lysate was used to assess TNF-α using the MyBioSource ELISA kit (Catalog No: MBS2502004). This assay employs the quantitative sandwich enzyme immunoassay technique. Briefly, 100 µl of the samples were added to each well. Incubate for 90 min at 37 °C, and immediately add 100 μl of Biotinylated Detection Ab working solution to each well. Incubate for 1 h at 37 °C, then add 350 µl of wash buffer to each well, 100 μl of HRP Conjugate working solution to each well was added, incubated for 30 min at 37 °C. Add 90 μl of Substrate Reagent to each well. Incubate for about 15 min at 37 °C. Then, 50 μl of Stop Solution was added to each well. Finally, the optical density of each well was detected at 450 nm.

[4] = system: COX-2 production in LPS-induced BV2 microglia cell lines; assay: COX-2 assessment in LPS-induced BV2 microglia (ELISA); format: cell-based
Experimental: Previously, it was reported that COX-2 is a key mediator in the inflammatory response and may play a role in neurodegeneration.
as §1
For COX-2, all reagents, samples, and standards were prepared as Kit instructions, then 100 μl of standard or sample were added to each well, incubated 2.5 h at room temperature. Then 100 μl of prepared biotin antibody was added to each well, incubated an hour at room temperature. After that 100 μl of prepared Streptavidin solution was added. Then it was incubated for 45 min at room temperature. An aliquot of 100 μl TMB One-Step Substrate Reagent was added to each well, incubated 30 min at room temperature, 50 μL stop solution added to each well. Finally, the optical density was read at 450 nm immediately.

AChE = AChE (Homo sapiens, UniProt P22303); assay: biochemical; conditions: modified Ellman; read-out: AChE inhibitory activity IC50
Experimental: (§2) The effects of twenty synthetic compounds were evaluated for AChE and BuChE inhibition using the modified method of Ellman et al.[33] […] AChE and BuChE are found in the brains of mammals. Genetically, structurally, and kinetically, the two kinds vary. In the human brain, BuChE is found in glial cells and neurons as well as in plaques and tangles in AD patients. […] BuChE may replace AChE by hydrolysing brain acetylcholine in some conditions, such as in mice nullizygote for AChE or in AD patients in advanced stages of the disease[34]^,[35].

BuChE = BuChE (Homo sapiens, UniProt P06276); assay: biochemical; conditions: modified Ellman; read-out: BuChE inhibitory activity IC50
Experimental: as §2

IL-1β production = system: IL-1β production; set-up: method as in PMID 21295616; conditions: read-out: suppression of IL-1β production IC50; cited from earlier work

T1 sequence (P05067 672-713 limits assumed): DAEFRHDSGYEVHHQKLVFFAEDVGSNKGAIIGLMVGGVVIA
Sequence of AChE (P22303 32-614): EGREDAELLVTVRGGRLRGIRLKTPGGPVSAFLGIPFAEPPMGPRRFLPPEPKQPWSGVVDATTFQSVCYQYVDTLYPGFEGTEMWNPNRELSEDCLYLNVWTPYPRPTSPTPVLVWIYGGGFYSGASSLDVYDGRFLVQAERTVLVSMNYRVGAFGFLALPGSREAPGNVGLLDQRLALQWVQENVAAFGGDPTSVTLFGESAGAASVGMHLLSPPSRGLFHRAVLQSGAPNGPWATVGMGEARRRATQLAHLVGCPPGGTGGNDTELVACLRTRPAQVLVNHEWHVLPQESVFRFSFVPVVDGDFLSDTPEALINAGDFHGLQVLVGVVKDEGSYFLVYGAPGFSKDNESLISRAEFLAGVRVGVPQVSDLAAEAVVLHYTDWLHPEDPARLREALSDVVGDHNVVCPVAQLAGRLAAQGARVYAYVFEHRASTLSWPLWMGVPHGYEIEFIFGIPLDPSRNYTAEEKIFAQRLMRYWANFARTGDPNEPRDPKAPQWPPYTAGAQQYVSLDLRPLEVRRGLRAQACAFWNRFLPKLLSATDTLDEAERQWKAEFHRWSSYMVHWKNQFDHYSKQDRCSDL
Sequence of BuChE (P06276 29-602): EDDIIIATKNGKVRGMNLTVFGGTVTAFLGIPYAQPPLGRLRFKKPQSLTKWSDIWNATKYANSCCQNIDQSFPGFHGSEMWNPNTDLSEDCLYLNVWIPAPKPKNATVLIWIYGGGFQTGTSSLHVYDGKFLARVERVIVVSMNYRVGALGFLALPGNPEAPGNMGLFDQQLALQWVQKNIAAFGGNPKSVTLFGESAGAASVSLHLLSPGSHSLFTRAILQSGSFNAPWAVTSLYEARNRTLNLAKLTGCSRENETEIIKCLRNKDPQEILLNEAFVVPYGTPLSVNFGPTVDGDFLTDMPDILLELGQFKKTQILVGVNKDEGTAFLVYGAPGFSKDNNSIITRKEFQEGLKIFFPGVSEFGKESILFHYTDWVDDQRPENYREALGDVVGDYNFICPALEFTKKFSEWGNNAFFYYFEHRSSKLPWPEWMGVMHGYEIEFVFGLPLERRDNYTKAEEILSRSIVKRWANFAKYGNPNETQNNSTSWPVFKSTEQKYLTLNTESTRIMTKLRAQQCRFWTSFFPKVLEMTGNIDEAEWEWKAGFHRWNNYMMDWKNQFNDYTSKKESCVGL

Structure (SMILES)	IC50 (Aβ1–42)	decrease in IL-1β level to about, as compared to a positive control [1]	NO level [2]	decrease in TNF-α levels to, compared to positive control [3]	decrease in COX-2 levels as compared to a positive control [4]	IC50 (AChE)	IC50 (BuChE)	IC50 (IL-1β production)
CS(=O)(=O)n1cc(/C=C/C(=O)c2ccc(NC(=O)Cc3ccc(Cl)cc3)cc2)c2ccccc21 [Compound 5b, (E)-2–(4-Chlorophenyl)-N-{4-[3–(1-(methylsulfonyl)-1H-indol-3-yl)acryloyl]phenyl}acetamide]	2.5 µM	about 5%	4.89 pg/mL	53%	about 20%	27.5 nM	36.9 nM	
CS(=O)(=O)n1cc(/C=C/C(=O)c2ccc(NC(=O)CN3CCC(Cc4ccccc4)CC3)cc2)c2ccccc21 [Compound 6b, (E)-2–(4-Benzylpiperidin-1-yl)-N-{4-[3–(1-(methylsulfonyl)-1H-indol-3-yl)acryloyl]phenyl}acetamide]	4.94 µM	~48%	4.46 pg/mL	67%	~14%	49.3 nM	80.4 nM	
Cc1cc(-c2ccccc2)nnc1C(=O)N1CCN(c2ncccn2)CC1 [GIBH-130]								3.4 nM

Reference: article PMC9518246, “Design and synthesis of new indole drug candidates to treat Alzheimer’s disease and targeting neuro-inflammation using a multi-target-directed ligand (MTDL) strategy” (Journal of Enzyme Inhibition and Medicinal Chemistry, 2022)
